This is an account of results in patent US10208074B2, “Pyrazole compounds and method for making and using the compounds” (Rigel Pharmaceuticals, Inc., priority 2015, dated 2019).

Test [1] deals with IL-23p19. In words: LPS induced IL23p19 in THP-1 cells (with IFNγ primed) assay. The class given is cell-based, Human. As to conditions: THP-1 cells, IFNγ primed, LPS 1 ug/mL, 18 hours, 10 pt, read-out: IL23-p19 ELISA, THP1-IFNy, LPS, 10 pt EC50. A digest of the protocol: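 THP-1 cells primed ~18 h with IFNγ (50 ng/mL), pre-incubated 1 h with compound at 37 °C, then stimulated 18 h with LPS (1 ug/mL final). Supernatant IL-23p19 measured by sandwich ELISA with chemiluminescent read-out; EC50 from curve fitting. Toxicity checked on the remaining cells by Cell Titer Glo.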
For orientation: An ELISA detects its analyte on a solid surface through an enzyme-linked reagent.

The test system of test [2] is IL-23 (p19/p40). As to the kind of experiment: IL23-p19 ELISA, Dendritic, LPS (compound screening using DC cells). As to conditions: PBMC-derived DC cells, IFNγ primed, LPS 1 μg/ml, 18 hours, 10 pt, read-out: IL23-p19 ELISA, Dendritic, LPS, 10 pt, EC50. The class given is cell-based, Human. A digest of the protocol:
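Human PBMC-derived dendritic cells (7 d GM-CSF 100 ng/ml + IL-4 20 ng/ml), primed 24 h with IFNγ 50 ng/ml, pre-incubated 1 h with compound, then stimulated 18 h with LPS 1 μg/ml. Supernatant IL-23 measured by p19-capture/p40-detection chemiluminescent ELISA; CellTiter Glo checks cytotoxicity.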

Structures can show the parent of a compound that is named as a salt. Where two headings read alike, the source gives them in different places.

Take `COc1ccc(Cn2cc(-c3nc(C(=O)Nc4cn(CC(O)(C(F)(F)F)C(F)(F)F)nc4-c4ccccn4)cs3)cn2)cc1` [II-107, 2-(1-(4-methoxybenzyl)-1H-pyrazol-4-yl)-N-(3-(pyridin-2-yl)-1-(3,3,3-trifluoro-2-hydroxy-2-(trifluoromethyl)propyl)-1H-pyrazol-4-yl)thiazole-4-carboxamide]: the EC50 (usually the concentration needed to bring the measured effect to its halfway point) in test [1] (Homo sapiens, THP-1, 18 h) amounted to 1500 nM; in test [2] (Homo sapiens, 18 h), 2310 nM.
Taken in the same sequence, the figures for `CCOCCn1cc(NC(=O)c2csc(-c3cn[nH]c3)n2)c(-c2nccs2)n1` [II-109, N-(1-(2-ethoxyethyl)-3-(thiazol-2-yl)-1H-pyrazol-4-yl)-2-(1H-pyrazol-4-yl)thiazole-4-carboxamide] were 140 nM and 327 nM.
For the compound `O=C(Nc1cn(C2CCOCC2)nc1-c1nccs1)c1csc(-c2cn[nH]c2)n1` [II-111, 2-(1H-pyrazol-4-yl)-N-(1-(tetrahydro-2H-pyran-4-yl)-3-(thiazol-2-yl)-1H-pyrazol-4-yl)thiazole-4-carboxamide], the EC50 in test [1] (Homo sapiens, THP-1, 18 h) came out at 65.1 nM; in test [2] (Homo sapiens, 18 h), 34.3 nM.
As for `COCCOCCn1cc(NC(=O)c2csc(-c3cn[nH]c3)n2)c(-c2nccs2)n1` [II-113, N-(1-(2-(2-methoxyethoxy)ethyl)-3-(thiazol-2-yl)-1H-pyrazol-4-yl)-2-(1H-pyrazol-4-yl)thiazole-4-carboxamide], the EC50 in test [1] (Homo sapiens, THP-1, 18 h) amounted to 84.4 nM; in test [2] (Homo sapiens, 18 h) it was 288 nM.
Taken in the same sequence, the figures for `O=C(Nc1cn(C2CCOC2)nc1-c1nccs1)c1csc(-c2cn[nH]c2)n1` (stereo not drawn) [II-115, 2-(1H-pyrazol-4-yl)-N-(1-(tetrahydrofuran-3-yl)-3-(thiazol-2-yl)-1H-pyrazol-4-yl)thiazole-4-carboxamide] were 43.8 nM and 159 nM.
Consider `CCN(CC)CCn1cc(NC(=O)c2csc(-c3cn[nH]c3)n2)c(-c2ccccn2)n1` [II-117, N-(1-(2-(diethylamino)ethyl)-3-(pyridin-2-yl)-1H-pyrazol-4-yl)-2-(1H-pyrazol-4-yl)thiazole-4-carboxamide], for which the EC50 in test [1] amounted to 56.6 nM; in test [2] (Homo sapiens, 18 h), 106 nM.
For the compound `O=C(Nc1cn(CCOCCF)nc1-c1ccccn1)c1csc(-c2cn[nH]c2)n1` [II-118, N-(1-(2-(2-fluoroethoxy)ethyl)-3-(pyridin-2-yl)-1H-pyrazol-4-yl)-2-(1H-pyrazol-4-yl)thiazole-4-carboxamide], the EC50 in test [1] (Homo sapiens, THP-1, 18 h) was determined as 109 nM; in test [2] (Homo sapiens, 18 h) it was 212 nM.
Taken in the same sequence, the figures for `O=C(Nc1cn(Cc2ccccc2)nc1-c1ccccn1)c1csc(-c2cn[nH]c2)n1` [II-120, N-(1-benzyl-3-(pyridin-2-yl)-1H-pyrazol-4-yl)-2-(1H-pyrazol-4-yl)thiazole-4-carboxamide] were 664 nM and 1170 nM.
As for `O=C(Nc1cn(C2CCC2)nc1-c1ccccn1)c1csc(-c2cn[nH]c2)n1` [II-121, N-(1-cyclobutyl-3-(pyridin-2-yl)-1H-pyrazol-4-yl)-2-(1H-pyrazol-4-yl)thiazole-4-carboxamide], the EC50 in test [1] (Homo sapiens, THP-1, 18 h) was determined as 98.6 nM; in test [2] (Homo sapiens, 18 h), 44.4 nM.
Taken in the same sequence, the figures for `O=C(Nc1cn(CCOCC(F)F)nc1-c1ccccn1)c1csc(-c2cn[nH]c2)n1` [II-122, N-(1-(2-(2,2-difluoroethoxy)ethyl)-3-(pyridin-2-yl)-1H-pyrazol-4-yl)-2-(1H-pyrazol-4-yl)thiazole-4-carboxamide] were 213 nM and 304 nM.
Taken in the same sequence, the figures for `O=C(Nc1cn(CC2CC(O)C2)nc1-c1ccccn1)c1csc(-c2cn[nH]c2)n1` (stereo not drawn) [II-123, N-(1-(((1r,3r)-3-hydroxycyclobutyl)methyl)-3-(pyridin-2-yl)-1H-pyrazol-4-yl)-2-(1H-pyrazol-4-yl)thiazole-4-carboxamide] were 27.1 nM and 149 nM.
Taken in the same sequence, the figures for `CN(C)C(=O)n1cc(NC(=O)c2csc(-c3cn[nH]c3)n2)c(-c2ccccn2)n1` [II-125, N-(1-(dimethylcarbamoyl)-3-(pyridin-2-yl)-1H-pyrazol-4-yl)-2-(1H-pyrazol-4-yl)thiazole-4-carboxamide] were 1240 nM and 27300 nM.
For `[2H]C([2H])([2H])C([2H])([2H])O[C@H]1C[C@@H](n2cc(NC(=O)c3csc(-c4cn[nH]c4)n3)c(-c3ccccn3)n2)C1` [II-127, N-(1-((1s,3s)-3-(ethoxy-d5)cyclobutyl)-3-(pyridin-2-yl)-1H-pyrazol-4-yl)-2-(1H-pyrazol-4-yl)thiazole-4-carboxamide], the EC50 in test [1] (Homo sapiens, THP-1, 18 h) is 48.7 nM; in test [2] (Homo sapiens, 18 h), 81 nM.
Taken in the same sequence, the figures for `CCN(CC)C(=O)n1cc(NC(=O)c2csc(-c3cn[nH]c3)n2)c(-c2ccccn2)n1` [II-128, N-(1-(diethylcarbamoyl)-3-(pyridin-2-yl)-1H-pyrazol-4-yl)-2-(1H-pyrazol-4-yl)thiazole-4-carboxamide] were 1150 nM and 2480 nM.
Taken in the same sequence, the figures for `O=C(Nc1cn([C@H]2C[C@@H](OCCF)C2)nc1-c1ccccn1)c1csc(-c2cn[nH]c2)n1` [II-130, N-(1-((1s,3s)-3-(2-fluoroethoxy)cyclobutyl)-3-(pyridin-2-yl)-1H-pyrazol-4-yl)-2-(1H-pyrazol-4-yl)thiazole-4-carboxamide] were 56 nM and 89.8 nM.
On to `O=C(Nc1cn(C(=O)N2CCOCC2)nc1-c1ccccn1)c1csc(-c2cn[nH]c2)n1` [II-131, N-(1-(morpholine-4-carbonyl)-3-(pyridin-2-yl)-1H-pyrazol-4-yl)-2-(1H-pyrazol-4-yl)thiazole-4-carboxamide formate], for which the EC50 came out at 360 nM in test [1] (formate) and 9360 nM in test [2] (Homo sapiens, 18 h).
Take `O=C(Nc1cn(C2C=C(F)C2)nc1-c1ccccn1)c1csc(-c2cn[nH]c2)n1` (stereo not drawn) [II-132, N-(1-(3-fluorocyclobut-2-en-1-yl)-3-(pyridin-2-yl)-1H-pyrazol-4-yl)-2-(1H-pyrazol-4-yl)thiazole-4-carboxamide]: the 50% effective concentration (EC50) was determined as 224 nM in test [1] (Homo sapiens, THP-1, 18 h) and 924 nM in test [2] (Homo sapiens, 18 h).
For `O=C(Nc1cn(C2C=C(F)C2)nc1-c1ccccn1)c1csc(-c2cn[nH]c2)n1` (stereo not drawn) [II-133, N-(1-(3-fluorocyclobut-2-en-1-yl)-3-(pyridin-2-yl)-1H-pyrazol-4-yl)-2-(1H-pyrazol-4-yl)thiazole-4-carboxamide formate], the results for the concentration giving a half-maximal response (EC50) in test [1] (formate) and in test [2] (formate) were 313 nM and 1520 nM, respectively.
As to `O=C(Nc1cn(C2CC(F)(F)C2)nc1-c1ccccn1)c1csc(-c2cn[nH]c2)n1` [II-134, N-(1-(3,3-difluorocyclobutyl)-3-(pyridin-2-yl)-1H-pyrazol-4-yl)-2-(1H-pyrazol-4-yl)thiazole-4-carboxamide], the EC50 turned out to be 102 nM in test [1] (Homo sapiens, THP-1, 18 h) and 225 nM in test [2] (Homo sapiens, 18 h).
`N#Cc1nn([C@H]2C[C@@H](O)C2)cc1NC(=O)c1csc(-c2cn[nH]c2)n1` [II-136, N-(3-cyano-1-((1s,3s)-3-hydroxycyclobutyl)-1H-pyrazol-4-yl)-2-(1H-pyrazol-4-yl)thiazole-4-carboxamide]: the EC50 in test [1] (Homo sapiens, THP-1, 18 h) worked out at 1220 nM; in test [2] (Homo sapiens, 18 h), 10700 nM.
Turning to `O=C(Nc1cn(C2CCC3(CC2)OCCO3)nc1-c1ncccc1F)c1csc(-c2cn[nH]c2)n1` [II-140, N-(3-(3-fluoropyridin-2-yl)-1-(1,4-dioxaspiro[4.5]decan-8-yl)-1H-pyrazol-4-yl)-2-(1H-pyrazol-4-yl)thiazole-4-carboxamide], the 50% effective concentration (EC50) in test [1] (Homo sapiens, THP-1, 18 h) was found to be 30.8 nM; in test [2] (Homo sapiens, 18 h), 32.3 nM.
